Test results reported in publication PMC3961306, “Comparison of the Cancer Gene Targeting and Biochemical Selectivities of All Targeted Kinase Inhibitors Approved for Clinical Use” (PLoS ONE, 2014).
Read-outs that look alike come from different tables or passages of the source.

Columns and labels:
[1] = test system: forty-four human cancer cell lines; experiment: Cell proliferation assay (ATPlite, 72 hours) in the 44 cell line Oncolines panel; type: cell-based; details: Homo sapiens
[2] = molecular target: panel of more than 300 wild-type and mutant kinases (313 kinase panel) (Homo sapiens, UniProt P07947, T348I); experiment: Kinase profiling in a biochemical assay panel (mobility shift assays and ELISA), %-inhibition at 1 μM; selectivity entropy; details: kinase YES(T348I); compound at 1 μM
[3] = molecular target: panel of more than 300 wild-type and mutant kinases (313 kinase panel) (Homo sapiens, UniProt P09619); experiment: as above; details: kinase PDGFRβ; 1 μM
[4] = molecular target: panel of more than 300 wild-type and mutant kinases (313 kinase panel) (Homo sapiens, UniProt P15056); experiment: as above; details: kinase BRAF; 1 μM compound
[5] = molecular target: panel of more than 300 wild-type and mutant kinases (313 kinase panel) (Homo sapiens, UniProt P15056, V600E); experiment: as above; details: kinase BRAF(V600E); 1 μM compound
[6] = molecular target: panel of more than 300 wild-type and mutant kinases (313 kinase panel) (Homo sapiens, UniProt P22612); experiment: as above; details: kinase PKACγ; 1 μM
[7] = molecular target: T1, panel of more than 300 wild-type and mutant kinases (313 kinase panel) (Homo sapiens, UniProt P51955); experiment: as above; details: kinase NEK2; 1 μM
T1 sequence (P51955 1-445): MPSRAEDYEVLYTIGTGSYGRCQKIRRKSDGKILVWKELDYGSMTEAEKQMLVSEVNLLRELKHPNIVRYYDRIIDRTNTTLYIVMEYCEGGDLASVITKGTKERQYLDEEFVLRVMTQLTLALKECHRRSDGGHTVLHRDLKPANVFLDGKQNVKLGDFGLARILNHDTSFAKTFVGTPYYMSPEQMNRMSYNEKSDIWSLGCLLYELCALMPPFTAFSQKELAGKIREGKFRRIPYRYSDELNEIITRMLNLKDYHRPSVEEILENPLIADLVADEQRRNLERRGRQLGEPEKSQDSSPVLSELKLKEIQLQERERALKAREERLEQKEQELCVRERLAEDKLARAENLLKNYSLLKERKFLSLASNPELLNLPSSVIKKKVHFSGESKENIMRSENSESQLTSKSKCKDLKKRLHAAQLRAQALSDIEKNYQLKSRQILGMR

[8] = molecular target: T2, panel of more than 300 wild-type and mutant kinases (313 kinase panel) (Homo sapiens, UniProt Q16832); experiment: as above; details: kinase DDR2; compound at 1 μM
T2 sequence (Q16832 22-855): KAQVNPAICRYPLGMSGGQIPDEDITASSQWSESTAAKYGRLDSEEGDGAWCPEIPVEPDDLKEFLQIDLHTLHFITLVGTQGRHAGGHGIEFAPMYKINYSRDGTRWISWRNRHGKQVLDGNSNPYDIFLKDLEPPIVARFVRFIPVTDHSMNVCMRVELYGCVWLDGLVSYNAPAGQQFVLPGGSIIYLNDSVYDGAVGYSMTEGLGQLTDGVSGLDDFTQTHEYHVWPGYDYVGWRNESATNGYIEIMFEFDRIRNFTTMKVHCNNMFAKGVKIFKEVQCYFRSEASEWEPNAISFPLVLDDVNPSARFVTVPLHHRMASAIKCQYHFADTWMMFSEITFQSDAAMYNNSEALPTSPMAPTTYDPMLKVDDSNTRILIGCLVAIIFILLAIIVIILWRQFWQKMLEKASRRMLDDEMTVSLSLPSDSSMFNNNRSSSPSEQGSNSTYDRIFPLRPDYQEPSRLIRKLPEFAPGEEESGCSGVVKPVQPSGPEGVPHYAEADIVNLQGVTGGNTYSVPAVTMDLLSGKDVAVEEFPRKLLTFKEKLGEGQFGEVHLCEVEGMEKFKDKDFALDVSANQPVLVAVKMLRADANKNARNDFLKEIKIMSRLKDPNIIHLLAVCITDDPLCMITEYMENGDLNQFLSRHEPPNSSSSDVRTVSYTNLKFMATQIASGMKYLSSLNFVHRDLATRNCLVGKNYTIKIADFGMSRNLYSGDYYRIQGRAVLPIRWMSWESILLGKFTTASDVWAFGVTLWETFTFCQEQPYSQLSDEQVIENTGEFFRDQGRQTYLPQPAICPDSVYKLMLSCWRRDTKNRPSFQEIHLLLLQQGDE

[9] = molecular target: panel of more than 300 wild-type and mutant kinases (313 kinase panel) (Homo sapiens, UniProt Q8TDX7); experiment: as above; details: kinase NEK7; 1 μM

panel of more than 300 wild-type and mutant kinases (313 kinase panel) (Homo sapiens, UniProt P07947, T348I), sequence (P07947 whole entry T348I): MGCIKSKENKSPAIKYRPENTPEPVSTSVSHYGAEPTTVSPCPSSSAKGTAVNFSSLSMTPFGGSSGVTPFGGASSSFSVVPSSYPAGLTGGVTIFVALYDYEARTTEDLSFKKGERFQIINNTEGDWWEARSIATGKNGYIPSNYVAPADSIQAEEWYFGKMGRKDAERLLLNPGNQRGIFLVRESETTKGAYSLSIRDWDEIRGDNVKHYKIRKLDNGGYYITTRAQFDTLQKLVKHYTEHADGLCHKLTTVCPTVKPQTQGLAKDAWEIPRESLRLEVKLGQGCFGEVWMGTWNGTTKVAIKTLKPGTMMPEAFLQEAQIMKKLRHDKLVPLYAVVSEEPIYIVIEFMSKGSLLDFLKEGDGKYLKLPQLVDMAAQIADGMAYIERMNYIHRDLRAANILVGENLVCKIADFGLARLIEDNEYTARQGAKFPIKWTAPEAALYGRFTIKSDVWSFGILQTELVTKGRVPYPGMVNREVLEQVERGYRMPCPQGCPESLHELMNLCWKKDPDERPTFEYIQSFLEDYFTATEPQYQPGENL
panel of more than 300 wild-type and mutant kinases (313 kinase panel) (Homo sapiens, UniProt P15056, V600E), sequence (P15056 whole entry V600E): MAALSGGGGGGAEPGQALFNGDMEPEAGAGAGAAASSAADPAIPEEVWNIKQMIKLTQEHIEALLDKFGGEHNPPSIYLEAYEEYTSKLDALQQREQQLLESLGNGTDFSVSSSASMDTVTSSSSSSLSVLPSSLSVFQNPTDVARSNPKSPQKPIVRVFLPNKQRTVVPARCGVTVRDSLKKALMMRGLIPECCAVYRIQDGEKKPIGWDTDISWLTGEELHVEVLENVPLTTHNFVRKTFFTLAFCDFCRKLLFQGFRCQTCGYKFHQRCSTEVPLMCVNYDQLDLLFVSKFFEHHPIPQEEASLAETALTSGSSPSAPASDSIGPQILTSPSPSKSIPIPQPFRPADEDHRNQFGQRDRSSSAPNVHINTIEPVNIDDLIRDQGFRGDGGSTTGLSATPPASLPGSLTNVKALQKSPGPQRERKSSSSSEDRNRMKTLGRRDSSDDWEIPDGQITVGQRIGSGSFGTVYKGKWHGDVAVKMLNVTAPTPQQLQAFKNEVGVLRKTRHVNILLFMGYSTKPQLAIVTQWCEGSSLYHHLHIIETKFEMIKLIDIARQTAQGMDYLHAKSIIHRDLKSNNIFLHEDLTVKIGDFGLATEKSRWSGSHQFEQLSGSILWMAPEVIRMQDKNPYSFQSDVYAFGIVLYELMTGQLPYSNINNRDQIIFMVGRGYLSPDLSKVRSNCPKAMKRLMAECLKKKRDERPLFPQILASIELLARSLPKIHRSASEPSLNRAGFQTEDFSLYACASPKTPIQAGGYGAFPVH
panel of more than 300 wild-type and mutant kinases (313 kinase panel) (Homo sapiens, UniProt P15056), sequence (P15056 whole entry, stated change not applied): as the sequence (P15056 whole entry V600E) above, with E600V counted along it

## CC(=O)Nc1cccc(-n2c(=O)n(C3CC3)c(=O)c3c(Nc4ccc(I)cc4F)n(C)c(=O)c(C)c32)c1 [trametinib]
[1]; A 172, read-out: cell panel IC50, A-172
  IC50: 110 nM
[1]; A204, cell line A-204, read-out: cell panel IC50, A-204
  IC50: 631 nM
[1]; A498, read-out: cell panel IC50, A-498
  IC50: 22300 nM
[1]; A549, read-out: cell panel IC50, A-549
  IC50: 57 nM
[1]; A-375, cell line A375, read-out: cell panel IC50, A375
  IC50: 13 nM
[1]; A-427, read-out: cell panel IC50, A-427
  IC50: 17 nM
[1]; AU565, read-out: cell panel IC50, AU-565
  IC50: 19400 nM
[1]; BT-549, read-out: cell panel IC50, BT-549
  IC50: 17700 nM
[1]; HCT-116, read-out: cell panel IC50, HCT-116
  IC50: 35 nM
[1]; K562, read-out: cell panel IC50, K-562
  IC50: 37 nM
[1]; LS174T, read-out: cell panel IC50, LS 174T
  IC50: 37 nM
[1]; SHP77, cell line SHP-77, read-out: cell panel IC50, SHP-77
  IC50: > 31600 nM
[1]; SW-620, cell line SW620, read-out: cell panel IC50, SW620
  IC50: 1.35 nM
[1]; U2OS, cell line U-2 OS, read-out: cell panel IC50, U-2 OS
  IC50: 311 nM
[1]; cell line J82, read-out: cell panel IC50, J82
  IC50: > 31600 nM
[1]; cell line PA-1, read-out: cell panel IC50, PA-1
  IC50: 436 nM
[1]; cell line SJCRH30, read-out: cell panel IC50, SJCRH30
  IC50: 783 nM
[1]; cell line SR, read-out: cell panel IC50, SR
  IC50: 950 nM
[1]; U-87 MG cell line, ATPlite, 72 hours, read-out: IC50 in cell proliferation assay (table S5 cellpanel data)
  IC50: 229 nM
[1]; cell line 769-P, read-out: cell panel IC50, 769-P
  IC50: 85 nM
[1]; cell line 786-0, read-out: cell panel IC50, 786-0
  IC50: 25800 nM
[1]; cell line ACHN, read-out: cell panel IC50, ACHN
  IC50: 496 nM
[1]; cell line AN3 CA, read-out: cell panel IC50, AN3 CA
  IC50: 13600 nM
[1]; cell line BT-20, read-out: cell panel IC50, BT-20
  IC50: > 31600 nM
[1]; cell line BxPC-3, read-out: cell panel IC50, BxPC-3
  IC50: 29 nM
[1]; cell line C-33 A, read-out: cell panel IC50, C-33 A
  IC50: 8 nM
[1]; cell line CAL 27, read-out: cell panel IC50, CAL 27
  IC50: 58 nM
[1]; cell line CCRF-CEM, read-out: cell panel IC50, CCRF-CEM
  IC50: 28000 nM
[1]; cell line DLD-1, read-out: cell panel IC50, DLD-1
  IC50: 493 nM
[1]; cell line FaDu, read-out: cell panel IC50, FaDu
  IC50: 14 nM
[1]; cell line HCT-15, read-out: cell panel IC50, HCT-15
  IC50: 2040 nM
[1]; cell line Hs 578T, read-out: cell panel IC50, Hs 578T
  IC50: 371 nM
[1]; cell line Jurkat E6.1, read-out: cell panel IC50, Jurkat E6.1
  IC50: > 31600 nM
[1]; cell line LoVo, read-out: cell panel IC50, LoVo
  IC50: 8 nM
[1]; cell line MG-63, read-out: cell panel IC50, MG-63
  IC50: 119 nM
[1]; cell line MOLT-4, read-out: cell panel IC50, MOLT-4
  IC50: 19300 nM
[1]; cell line MeWo, read-out: cell panel IC50, MeWo
  IC50: 33 nM
[1]; cell line NCI-H82, read-out: cell panel IC50, NCI-H82
  IC50: 24700 nM
[1]; cell line NCI-H460, read-out: cell panel IC50, NCI-H460
  IC50: 14 nM
[1]; cell line OVCAR-3, read-out: cell panel IC50, OVCAR-3
  IC50: > 31600 nM
[1]; cell line RPMI-7951, read-out: cell panel IC50, RPMI-7951
  IC50: 10 nM
[1]; cell line SK-N-AS, read-out: cell panel IC50, SK-N-AS
  IC50: 9.52 nM
[1]; cell line SW48, read-out: cell panel IC50, SW48
  IC50: 1.2 nM
[1]; cell line SW480, read-out: cell panel IC50, SW480
  IC50: 574 nM
[2]
  %-inhibition of YES(T348I): -2.82%
[3]
  %-inhibition of PDGFRβ: 3.44%
[4]
  %-inhibition, BRAF: 78%
[5]
  %-inhibition, BRAF(V600E): 37%
[6]
  %-inhibition of PKACγ: 2%
[7]
  %-inhibition of NEK2: 2.76%
[8]
  %-inhibition of DDR2: 0.612%
[9]
  %-inhibition of NEK7: 1.63%
